# Measured values reported in patent publication US12251422B2, “Compositions and methods for treating neurological and other disorders” (Rush University Medical Center, priority 2018, dated 2025).
# Assays:
# cTLR2 protein = biological target: T1, cTLR2 protein (Mus musculus, UniProt Q9QUN7); experiment: Thermal shift assay of cTLR2 with TIDM peptides; format: binding; conditions: 10 μM peptide
# T1 construct: The cTLR2 (640-784 amino acids) tagged with c-myc was cloned in lenti vector; made in house; host or cells: HEK293 cells (lentiviral expression)
# T1 sequence (Q9QUN7 640-784): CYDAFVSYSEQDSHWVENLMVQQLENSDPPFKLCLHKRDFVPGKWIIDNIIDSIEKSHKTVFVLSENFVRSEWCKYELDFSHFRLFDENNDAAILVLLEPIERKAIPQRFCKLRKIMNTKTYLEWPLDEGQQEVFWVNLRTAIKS
# Method: Thermal shift assays were performed in an Applied Biosystems 7500 standard real-time thermal cycler machine as described before (52, 53). For each reaction, purified protein (0.5 μg to 1 μg) was added to 18 μL of thermal shift buffer provided with the kit, and 1-2 μL of dye. Reaction was set 96 well PCR plate in the dark and then placed in the thermal cycler machine using the following two-stage program [(25° C. for 2 mins) 1 cycle; ([…]) 70 cycles; auto increment 1° C. for both stages]. The filter was set at ROX with no quencher filter and no passive filter.
# NF-κB = NF-κB activation by EMSA in BV-2 microglial cells; format: cell-based
# Method: FIG. 4(A-S). Effect of wtTIDM and mTIDM peptides on the induction of NF-κB activation and the expression of proinflammatory molecules in microglial cells. BV-2 microglial cells preincubated with 10 μM wtTIDM/mTIDM peptides for 1 h were stimulated with 1 μM fibrillar Aβ1-42 (A-C), 1 μM MPP+ (D-F), 250 ng/ml LTA (G-I), […] LPS (J-L), 1 μM flagellin (M-O), and 1 μM CpG DNA (P-R) under serum-free condition. After 1 h of stimulation, the activation of NF-κB was monitored in nuclear extracts by EMSA (A, fibrillar Aβ; D, MPP+; G, LTA; J, LPS; M, flagellin, P; CpG DNA). After 4 h of stimulation, the mRNA expression of IL-1β (B, E, H, K, N, & Q) and iNOS (C, F, I, L, O, & R) was monitored by real-time PCR (B-C, fibrillar Aβ; E-F, MPP+; H-I, LTA; K-L, LPS; N-O, flagellin; Q-R, CpG DNA) (n=2 replicates/dose in 3 independent experiments). ap<0.001 vs control; bp<0.001 vs stimuli by two-sample t-tests. FIG. 4S is a schematic representation of the relationships in microglia of Toll-Like Receptors, the stimulators tested, wTIDM, MyD88 and NF-κB.
# FIG. 14 (A-D). Effect of wtTIDM and mTIDM peptides on polyIC-mediated activation of NF-κB activation and the expression of proinflammatory molecules in microglial cells. BV-2 microglial cells preincubated with 10 μM wtTIDM/mTIDM peptides for 1 h were stimulated with 50 μM polyIC. A) After 1 h of stimulation, the activation of NF-κB was monitored in nuclear extracts by EMSA. After 4 h of stimulation, the mRNA expression of IL-1β and iNOS was monitored by semi-quantitative RT-PCR (B) and real-time PCR (C, IL-1β; D, iNOS) (n=2 replicates/condition in 3 independent experiments). ap<0.001 vs control; bp<0.001 vs stimuli by two-sample t-tests.
# Nuclear extracts were isolated and EMSA was carried out as described before (22, 23).
# EAE mice = experiment: Experimental allergic encephalomyelitis (EAE) in C57/BL6 mice; format: in vivo, mouse; conditions: 0.1 mg/kg body wt/d intranasal from 10 dpi
# Source text: FIG. 7 (A-V). The wtTIDM, but not mTIDM, peptide protects mice from experimental allergic encephalomyelitis (EAE) and collagen-induced arthritis (CIA). […] Mice (n=6 per group in two independent experiments) were scored daily. […] On 22 dpi, general motor activities were monitored using the Ethovision XT 13.0 Open Field Activity System (Noldus) (B, heat-map images representing overall motor activities; C, distance travelled; D, rearing; E, velocity; F, acceleration) and rotorod (G). Foot print analysis (H, stride length; I, print length; J, sway length; K, toe spread) was also performed, L) CIA was induced in male DBA/1J mice by bovine type II collagen immunization and from 29 dpi, mice were treated with wtTIDM and mTIDM peptides (1 mg/kg body wt/d) via i.p. injection. Mice (n=6 per group in two independent experiments) were scored daily. […] On 60 dpi, general motor activities were monitored by Ethovision System (M, heat-map images representing overall motor activities; N, distance travelled; O, rearing; P, velocity), rotorod (Q) and grip strength (R). Foot print analysis (S, stride length; T, print length; U, sway length; V, toe spread) was also performed. Six mice (n=6 per group) were used in two independent experiments. ap<0.001 & bp<0.05 vs control; cp<0.001 & dp<0.05 vs EAE or CIA by two-sample t-tests.
# FIG. 25 (A-D). Footprint analysis of EAE mice after treatment with wtTIDM and mTIDM peptides. On the walking track, we applied white paper strips and obtained the footprints of mice of different groups (A, control; B, EAE; C, EAE+wtTIDM; D, EAE+mTIDM) on paper using black ink. A total of 30-40 steps for each group were determined. Four different footprint measurements, viz., stride length (SL), print length (PL), sway length (SWL), and toe spread (TS) were calculated in centimeters from the recorded prints of mice. While SL refers the distance between the front edge of two consecutive prints of the same paw, SWL refers the distance between the paws perpendicular to the distance of travel and PL indicates the measurement of length of print area. […]
Compound,shift (ΔTm) of melting temperature of cTLR2 (cTLR2 protein) [°C],"effect on activation of NF-κB induced by any of the stimuli (NF-κB; fibrillar Aβ, MPP+, LTA, poly IC, LPS, flagellin, CpG DNA)",clinical symptoms of EAE (EAE mice),"inhibition of LTA-mediated activation of NF-κB (NF-κB; 10 μM peptide 1 h, then 250 ng/ml LTA for 1 h)","suppression of NF-κB activation induced by CpG DNA (NF-κB; 10 μM peptide 1 h, then 1 μM CpG DNA for 1 h)","suppression of NF-κB activation induced by MPP+ (NF-κB; 10 μM peptide 1 h, then 1 μM MPP+ for 1 h)","inhibition of fibrillar Aβ-mediated activation of NF-κB (NF-κB; 10 μM peptide 1 h, then 1 μM fibrillar Aβ1-42 for 1 h)","suppression of NF-κB activation induced by flagellin (NF-κB; 10 μM peptide 1 h, then 1 μM flagellin for 1 h)","suppression of NF-κB activation induced by poly IC (NF-κB; 10 μM peptide 1 h, then 50 μM polyIC for 1 h)","suppression of NF-κB activation induced by LPS (NF-κB; 10 μM peptide 1 h, then 1 mg/ml LPS for 1 h)",locomotor activities and footprints in EAE mice (EAE mice; 22 dpi)
"CC[C@H](C)[C@H](NC(=O)[C@H](CCCCN)NC(=O)[C@@H](NC(=O)[C@H](CCC(N)=O)NC(=O)[C@H](CCCNC(=N)N)NC(=O)[C@@H](N)CC(=O)O)[C@@H](C)CC)C(=O)N[C@@H](Cc1c[nH]c2ccccc12)C(=O)N[C@@H](Cc1ccccc1)C(=O)N[C@@H](CCC(N)=O)C(=O)N[C@@H](CC(N)=O)C(=O)N[C@@H](CCCNC(=N)N)C(=O)N[C@@H](CCCNC(=N)N)C(=O)N[C@@H](CCSC)C(=O)N[C@@H](CCCCN)C(=O)N[C@@H](Cc1c[nH]c2ccccc12)C(=O)N[C@@H](CCCCN)C(=O)N[C@@H](CCCCN)C(=O)N1CCC[C@H]1C(=O)NCC(=O)N[C@@H](Cc1c[nH]c2ccccc12)C(=O)N[C@@H](Cc1c[nH]cn1)C(=O)N[C@@H](CCC(N)=O)C(=O)N[C@@H](CC(=O)O)C(=O)O [mTIDM, drqikiwfqnrrmkwkkPGWHQD]",0.87,had no effect,had no effect,,,,,,,,
"CC[C@H](C)[C@H](NC(=O)[C@H](CCCCN)NC(=O)[C@@H](NC(=O)[C@H](CCC(N)=O)NC(=O)[C@H](CCCNC(=N)N)NC(=O)[C@@H](N)CC(=O)O)[C@@H](C)CC)C(=O)N[C@@H](Cc1c[nH]c2ccccc12)C(=O)N[C@@H](Cc1ccccc1)C(=O)N[C@@H](CCC(N)=O)C(=O)N[C@@H](CC(N)=O)C(=O)N[C@@H](CCCNC(=N)N)C(=O)N[C@@H](CCCNC(=N)N)C(=O)N[C@@H](CCSC)C(=O)N[C@@H](CCCCN)C(=O)N[C@@H](Cc1c[nH]c2ccccc12)C(=O)N[C@@H](CCCCN)C(=O)N[C@@H](CCCCN)C(=O)N1CCC[C@H]1C(=O)NCC(=O)N[C@@H](C)C(=O)N[C@@H](Cc1c[nH]cn1)C(=O)N[C@@H](CCC(N)=O)C(=O)N[C@@H](CCCCN)C(=O)O [wtTIDM, drqikiwfqnrrmkwkkPGAHQK]",4.96,,strongly inhibited,inhibited,remained unable to suppress,remained unable to suppress,inhibited,remained unable to suppress,remained unable to suppress,remained unable to suppress,improved
